# Calls of active or inactive are those of the source. The calls are words filed in the database; no cut-off is given here.
# Tests used:
# Mus musculus [1] = species on record: Mus musculus; assay: Induction of wound healing in BALB/c mouse model of full-thickness wounds assessed as increase in granulation tissue formation at 50 ug/ml, TOP bid measured after 8 days by H and E staining based analysis; type: functional; conditions: dose 50.0 µg/ml, time 8.0 day
# [2] = Induction of wound healing in BALB/c mouse model of full-thickness wounds at 50 ug/ml, TOP bid measured after 4 days (reference value: 48.6 %); type: functional; conditions: dose 50 µg/ml, time 4 day
# HUVEC [3] = assay: Induction of cell migration in HUVEC cells assessed as formation of cytoplasmic protrusions at 20 uM measured after 24 hrs by immunofluorescence microscopy; type: functional, cell-based; conditions: Homo sapiens
# HUVEC [4] = assay: Induction of cell migration in HUVEC cells assessed as healing rate at 20 uM measured after 24 hrs by scratch healing assay (reference value: 30.2 %); type: functional, Homo sapiens
# Neutrophil [5] = assay: Induction of phagocytosis in BALB/c mouse neutrophils cultured with CFSE-labeled Escherichia coli ATCC 25922 at 10 uM pretreated for 1 hr followed by bacterial exposure measured after 1.5 hrs by fluorescence microscopy; type: functional, cell-based; conditions: time 2.5 hrs
# [6] = Induction of wound healing in BALB/c mouse model of full-thickness wounds at 100 ug/ml, TOP bid measured after 8 days (reference value: 81.0 %); type: functional; conditions: dose 100 µg/ml, time 8 day
# Aorta [7] = assay: Ex vivo angiogenic activity in Aprepitant-treated C57BL/6 mouse aortic ring assessed as sprouting by measuring vessel outgrowth area at 20 uM measured for 7 days by microscopic analysis (reference value: 117.3 %); type: functional; conditions: time 7 day
# [8] = Induction of wound healing in BALB/c mouse model of full-thickness wounds at 50 ug/ml, TOP bid pretreated with Aprepitant for 2 hrs followed by compound administration measured after 8 days (reference value: 82.1 %); type: functional; conditions: dose 50 µg/ml, time 8 day
# RAW264.7 [9] = assay: Upregulation of phosphorylated Smad3 level in mouse RAW264.7 cells at 2.5 to 20 uM incubated for 4 hrs by Western blot analysis; type: functional, cell-based; conditions: dose 2.5-20 µM
# Neutrophil [10] = assay: Induction of chemotaxis in BALB/c mouse neutrophils assessed as increase in cell polarization measured for 15 mins by Zigmond-chamber based microscopy; type: functional; conditions: dose 5-40 µM
# Mus musculus [11] = species on record: Mus musculus; assay: Induction of wound healing in BALB/c mouse model of full-thickness wounds assessed as increase in endothelial cells in wound skin at 50 ug/ml, TOP bid measured after 4 days by IHC analysis; type: functional, cell-based; conditions: dose 50.0 µg/ml, time 4.0 day
# Aorta [12] = assay: Ex vivo angiogenic activity in C57BL/6 mouse aortic ring assessed as increase in sprouting by measuring vessel outgrowth area at 5 uM measured for 7 days by microscopic analysis relative to control; type: functional; conditions: time 7 day
# RAW264.7 [13] = assay: Induction of phagocytosis in mouse RAW264.7 cells assessed as increase in neutral red dye uptake by measuring optical density at 540 nm at 20 uM incubated for 24 hrs followed by dye addition measured after 4 hrs by absorbance based assay (reference value: 0.073); type: functional; conditions: time 28 hrs
# [14] = Induction of wound healing in BALB/c mouse model of full-thickness wounds at 200 ug/ml, TOP bid measured after 2 days (reference value: 30.4 %); type: functional; conditions: dose 200 µg/ml, time 2 day
# [15] = Induction of wound healing in BALB/c mouse model of full-thickness wounds at 50 ug/ml, TOP bid pretreated with Aprepitant for 2 hrs followed by compound administration measured after 2 days (reference value: 35.3 %); type: functional; conditions: dose 50 µg/ml, time 2 day
# Pseudomonas aeruginosa = assay: Antimicrobial activity against Pseudomonas aeruginosa ATCC 27853 assessed as microbial growth inhibition at 100 uM; type: functional, organism-based
# Neutrophil [16] = assay: Induction of phagocytosis in BALB/c mouse neutrophils cultured with CFSE-labeled Staphylococcus aureus ATCC 25923 at 10 uM pretreated for 1 hr followed by bacterial exposure measured after 1.5 hrs by fluorescence microscopy; type: functional, cell-based; conditions: time 2.5 hrs
# HUVEC [17] = assay: Induction of cell migration in HUVEC cells assessed as actin stress fiber formation at peripheral side of cytoplasmic membrane at 20 uM measured after 24 hrs by immunofluorescence microscopy; type: functional, cell-based; conditions: Homo sapiens
# HaCaT [18] = assay: Induction of cell migration in Mitomycin C-treated human HaCaT cells assessed as healing rate at 20 uM measured after 48 hrs by scratch healing assay (reference value: 25.7 %); type: functional
# RAW264.7 [19] = assay: Upregulation of phosphorylated Smad2 level in Aprepitant-treated mouse RAW264.7 cells at 2.5 to 20 uM incubated for 4 hrs by Western blot analysis; type: functional, cell-based; conditions: dose 2.5-20 µM
# Mus musculus [20] = species on record: Mus musculus; assay: Induction of wound healing in BALB/c mouse model of full-thickness wounds assessed as increase in phosphorylated Smad3 level in wound skin at 50 to 200 ug/ml, TOP bid measured after 4 days by Western blot analysis; type: functional; conditions: dose 50-200 µg/ml, time 4.0 day
# Mus musculus [21] = species on record: Mus musculus; assay: Induction of wound healing in BALB/c mouse model of full-thickness wounds assessed as decrease in recruitment of M1-type macrophages in wound skin at 50 ug/ml, TOP bid measured after 4 days by IHC analysis; type: functional; conditions: dose 50.0 µg/ml, time 4.0 day
# RAW264.7 [22] = assay: Induction of phagocytosis in mouse RAW264.7 cells cultured with Escherichia coli ATCC 25922 assessed as number of surviving engulfed bacteria at 20 uM incubated for 24 hrs followed by bacterial exposure for 1 hr and further treated with gentamycin for 2 hrs by plate counting method (reference value: 37); type: functional
# HaCaT [23] = assay: Induction of cell migration in Aprepitant-treated human HaCaT cells assessed as healing rate at 20 uM measured after 48 hrs by scratch healing assay (reference value: 63.1 %); type: functional
# Mus musculus [24] = species on record: Mus musculus; assay: Induction of wound healing in BALB/c mouse model of full-thickness wounds assessed as increase in phosphorylated Smad2 level in wound skin at 50 to 200 ug/ml, TOP bid measured after 4 days by Western blot analysis; type: functional; conditions: dose 50-200 µg/ml, time 4.0 day
# [25] = Toxicity in BALB/c mouse model of full-thickness wounds assessed as adverse effect in behaviour at 50 to 200 ug/ml, TOP bid measured upto 8 days; conditions: in vivo, topical_or_ocular, 192 h, dose 50-200 µg/ml, time < 8 day
# Mus musculus [26] = species on record: Mus musculus; assay: Induction of wound healing in BALB/c mouse model of full-thickness wounds assessed as increase in TGF-1beta production in wound skin at 50 to 200 ug/ml, TOP bid measured after 2 to 4 days by ELISA; type: functional; conditions: dose 50-200 µg/ml, time 2-4 day
# RAW264.7 [27] = assay: Induction of phagocytosis in mouse RAW264.7 cells assessed as increase in neutral red dye uptake by measuring optical density at 540 nm at 2.5 uM incubated for 24 hrs followed by dye addition measured after 4 hrs by absorbance based assay (reference value: 0.073); type: functional; conditions: time 28 hrs
# HUVEC [28] = assay: Angiogenic activity in Aprepitant-treated HUVEC cells assessed as increase in tube formation at 20 uM measured for 4 hrs by microscopic analysis; type: functional, cell-based; conditions: Homo sapiens
# HaCaT [29] = assay: Induction of cell migration in human HaCaT cells assessed as formation of cytoplasmic protrusions at 20 uM measured after 24 hrs by immunofluorescence microscopy; type: functional, cell-based
# Mus musculus [30] = species on record: Mus musculus; assay: Induction of wound healing in BALB/c mouse model of full-thickness wounds assessed as […] in IL-10 level in wound skin at 50 ug/ml, TOP bid measured after 2 days by ELISA; type: functional; conditions: dose 50.0 µg/ml, time 2.0 day
substance,measurement,setting,value
H-KPNPDRFYGLM-NH2,Activity,Mus musculus [1],Active
same,Activity,[2],64.8%
same,Activity,HUVEC [3],Active
same,Activity,HUVEC [4],46.7%
same,Activity,Neutrophil [5],Active
same,Activity,[6],100%
same,Activity,Aorta [7],40%
same,Activity,[8],82.5%
same,Activity,RAW264.7 [9],Active
same,Activity,Neutrophil [10],Dose-Dependent Effect
same,Activity,Mus musculus [11],Active
same,Activity,Aorta [12],77.6%
same,OD,RAW264.7 [13],0.109
same,Activity,[14],52.8%
same,Activity,[15],38.7%
same,Activity,Pseudomonas aeruginosa,inactive
same,Activity,Neutrophil [16],Active
same,Activity,HUVEC [17],Active
same,Activity,HaCaT [18],53%
same,Activity,RAW264.7 [19],inactive
same,Activity,Mus musculus [20],Active
same,Activity,Mus musculus [21],Active
same,Activity,RAW264.7 [22],20
same,Activity,HaCaT [23],76.1%
same,Activity,Mus musculus [24],Active
same,Activity,[25],Non-Toxic
same,Activity,Mus musculus [26],Active
same,OD,RAW264.7 [27],0.097
same,Activity,HUVEC [28],inactive
same,Activity,HaCaT [29],Active
same,Activity,Mus musculus [30],Active

# From ChEMBL document CHEMBL5375968, “Peptide TK-HR from the Skin of Chinese Folk Medicine Frog Hoplobatrachus Rugulosus Accelerates Wound Healing via the Activation of the Neurokinin-1 Receptor” (J Med Chem, 2023)
